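Compound exposure: 48 hours, 5 concentrations, 96-well plates. GI50 marks 50% less growth.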 Active and inactive are the calls of the source. Rule as the data show it: active = GI50 up to about 1.1 µM and inactive = higher. Starred links: 1 amine or outer side, 2 acyl side, 3 side chain; linkers in the order of their positions; H or OH if unused. Positions of bridges follow the written chain, without caps; N, C: chain ends. Non-standard residues stand in square brackets, D forms with d. Residues, ends and D or L forms follow the SMILES beside them. ξ: configuration not given here. X37 = CC[C@H](C)[C@@H](N[*:1])[C@@H](O)CC(=O)O[C@H](C(=O)[C@H](C)C(=O)[*:2])C(C)C; NMeY = CN[C@@H](Cc1ccc(O)cc1)C(=O)O; dNMeL = CN[C@H](CC(C)C)C(=O)O; ξΔPro = O=C(O)C1C=CCN1
Experiments:
Test in all cases: growth of human tumour cells (NCI), 48 h
[1] = system: Hs-578T
[2] = system: EKVX
[3] = system: SN12C
[4] = system: T47D
[5] = system: DU-145
[6] = system: OVCAR-5
[7] = system: NCI-H460
[8] = system: SK-OV-3
[9] = system: LOX IMVI
[10] = system: SF-268
[11] = system: HOP-62
[12] = system: COLO 205
[13] = system: UO-31
[14] = system: M14
[15] = system: RXF 393
[16] = system: SW-620
[17] = system: HCC 2998
[18] = system: CAKI-1
[19] = system: HL-60
[20] = system: SF-539

| SMILES | GI50 [1] | GI50 [2] | GI50 [3] | GI50 [4] | GI50 [5] | GI50 [6] | GI50 [7] | GI50 [8] | GI50 [9] | GI50 [10] | GI50 [11] | GI50 [12] | GI50 [13] | GI50 [14] | GI50 [15] | GI50 [16] | GI50 [17] | GI50 [18] | GI50 [19] | GI50 [20] |
| --- | --- | --- | --- | --- | --- | --- | --- | --- | --- | --- | --- | --- | --- | --- | --- | --- | --- | --- | --- | --- |
| CC[C@H](C)[C@H]1NC(=O)[C@@H](NC(=O)[C@@H](CC(C)C)N(C)C(=O)C2C=CCN2)[C@@H](C)OC(=O)[C@H](Cc2ccc(OC)cc2)N(C)C(=O)[C@@H]2CCCN2C(=O)[C@H](CC(C)C)NC(=O)[C@@H](C)C(=O)[C@H](C(C)C)OC(=O)C[C@@H]1O (some centres not stated) (H-[ξΔPro][dNMeL]T[X37]LP[NMeY](Me); ester 3-C) | < 0.005 µM (active) | < 0.005 µM (active) | < 0.005 µM (active) | < 0.005 µM (active) | < 0.005 µM (active) | < 0.005 µM (active) | < 0.005 µM (active) | < 0.005 µM (active) | < 0.005 µM (active) | < 0.005 µM (active) | < 0.005 µM (active) | < 0.005 µM (active) | 0.0204 µM (active) | < 0.005 µM (active) | < 0.005 µM (active) | < 0.005 µM (active) | < 0.005 µM (active) | 0.0107 µM (active) | 0.00703 µM (active) |  |
| N=c1oc2ccc([N+](=O)[O-])cc2cc1C(=O)Nc1ccccn1 | 29.1 µM (inactive) | 34.6 µM (inactive) | 72.6 µM (inactive) | 26.8 µM (inactive) | 60.4 µM (inactive) | > 100 µM (inactive) | 69 µM (inactive) | > 100 µM (inactive) | 33.5 µM (inactive) | 34.8 µM (inactive) | 25.3 µM (inactive) | 44 µM (inactive) |  | 36.8 µM (inactive) | 31.2 µM (inactive) | 70.3 µM (inactive) | 91.4 µM (inactive) | > 100 µM (inactive) | 49.4 µM (inactive) | 26.2 µM (inactive) |
| Cc1cc(/N=N/c2c(O)ccc3ccccc23)ccc1/N=N/c1cccc([N+](C)(C)C)c1 | 4.17 µM (inactive) | 17.6 µM (inactive) | 7.11 µM (inactive) | 6.22 µM (inactive) | 19.6 µM (inactive) | 17.7 µM (inactive) | 9.42 µM (inactive) | 21.3 µM (inactive) | 4.56 µM (inactive) | 10.7 µM (inactive) | 11.4 µM (inactive) | 2.47 µM (inactive) | 15.7 µM (inactive) | 13.6 µM (inactive) | 16.1 µM (inactive) | 10.1 µM (inactive) | 21.1 µM (inactive) | 22.7 µM (inactive) | 2.38 µM (inactive) | 5.71 µM (inactive) |
| CC(=O)N(CN1C(=O)CCC1C(=O)O)c1ccc(C)cc1 (configuration not stated) | > 100 µM (inactive) | > 100 µM (inactive) | > 100 µM (inactive) | > 100 µM (inactive) | > 100 µM (inactive) | > 100 µM (inactive) | > 100 µM (inactive) | > 100 µM (inactive) | > 100 µM (inactive) | > 100 µM (inactive) | > 100 µM (inactive) | > 100 µM (inactive) | > 100 µM (inactive) | > 100 µM (inactive) |  | > 100 µM (inactive) | > 100 µM (inactive) | > 100 µM (inactive) | > 100 µM (inactive) | > 100 µM (inactive) |
| NC(=O)c1ncn(C2CCC(CP(=O)(O)O)C2)c1N (configuration not stated) | > 100 µM (inactive) | > 100 µM (inactive) | > 100 µM (inactive) | > 100 µM (inactive) | > 100 µM (inactive) | > 100 µM (inactive) | > 100 µM (inactive) | > 100 µM (inactive) | > 100 µM (inactive) | > 100 µM (inactive) | > 100 µM (inactive) | > 100 µM (inactive) | > 100 µM (inactive) | > 100 µM (inactive) | > 100 µM (inactive) | > 100 µM (inactive) | > 100 µM (inactive) | > 100 µM (inactive) |  | > 100 µM (inactive) |
| O=C1CSC(/C=C/c2ccccc2)N1c1ccc(-c2ccc(-n3c(-c4ccccc4)nc4ccccc4c3=O)cc2)cc1 (configuration not stated) | > 10 µM (inactive) | 15.5 µM (inactive) | 27.4 µM (inactive) | 15.2 µM (inactive) | 24.7 µM (inactive) | 6.04 µM (inactive) | 30.7 µM (inactive) | 51.8 µM (inactive) | 15.8 µM (inactive) | 35.6 µM (inactive) | 28.5 µM (inactive) | 18.2 µM (inactive) | 14.2 µM (inactive) | 16.9 µM (inactive) |  | 19.4 µM (inactive) | 66.2 µM (inactive) | 33.7 µM (inactive) | 28.8 µM (inactive) |  |
| O=c1[nH]/c(=C/c2ccc(OCc3ccccc3)cn2)c(=O)[nH]/c1=C/c1ccccc1 | 0.185 µM (active) | 0.138 µM (active) | 0.113 µM (active) | > 24.7 µM (inactive) | 0.128 µM (active) | 1.07 µM (active) | 0.132 µM (active) | 0.531 µM (active) | 0.207 µM (active) | 0.206 µM (active) | 0.239 µM (active) | 1.06 µM (active) |  | 0.129 µM (active) | 0.0951 µM (active) | 0.158 µM (active) | 0.175 µM (active) | 0.194 µM (active) | 0.091 µM (active) | 0.12 µM (active) |
| CC1C(OC2O[C@@H]3O[C@@]4(C)CC[C@H]5[C@H](C)CC[C@@H](C2C)[C@@]35O4)O[C@@H]2O[C@@]3(C)CC[C@H]4[C@H](C)CC[C@@H]1[C@@]24O3 (some centres not stated) | > 50 µM (inactive) | > 50 µM (inactive) | > 50 µM (inactive) | > 50 µM (inactive) | > 50 µM (inactive) | > 50 µM (inactive) | > 50 µM (inactive) | > 50 µM (inactive) | > 50 µM (inactive) | > 50 µM (inactive) | > 50 µM (inactive) | > 50 µM (inactive) |  | > 50 µM (inactive) |  | > 50 µM (inactive) | > 50 µM (inactive) | > 50 µM (inactive) | > 50 µM (inactive) | > 50 µM (inactive) |
| O=[N+]([O-])C1(C2([N+](=O)[O-])CCCC2)CCCC1 | > 100 µM (inactive) | > 100 µM (inactive) | > 100 µM (inactive) | > 100 µM (inactive) | > 100 µM (inactive) | > 100 µM (inactive) | > 100 µM (inactive) | > 100 µM (inactive) | > 100 µM (inactive) | > 100 µM (inactive) |  | > 100 µM (inactive) | 57.1 µM (inactive) | > 100 µM (inactive) | > 100 µM (inactive) | > 100 µM (inactive) | > 100 µM (inactive) | > 100 µM (inactive) | > 100 µM (inactive) | > 100 µM (inactive) |
| Oc1ccc2ccccc2c1OCc1nnc(CCCCCCCCc2nnc(COc3c(O)ccc4ccccc34)n2Nc2ccccc2)n1Nc1ccccc1 | 18.2 µM (inactive) | 15.4 µM (inactive) | 35.7 µM (inactive) | 25.9 µM (inactive) | 19.7 µM (inactive) | 2.51 µM (inactive) | 2.7 µM (inactive) | 16.5 µM (inactive) |  | 6.17 µM (inactive) | 1.06 µM (active) | 0.399 µM (active) | 7.46 µM (inactive) | 2.56 µM (inactive) | 28.5 µM (inactive) | 18 µM (inactive) | 8.05 µM (inactive) | 12.3 µM (inactive) |  | 6.85 µM (inactive) |
| COc1cccc(C=C2N=C(c3ccccc3)N(n3c(-c4ccccc4)nc4ccccc4c3=O)C2=O)c1 | 48.2 µM (inactive) | 43.6 µM (inactive) | 57.8 µM (inactive) | 26.5 µM (inactive) | 83.8 µM (inactive) |  | 35.2 µM (inactive) | > 100 µM (inactive) | 62.5 µM (inactive) | 56.4 µM (inactive) | 85.1 µM (inactive) | 54 µM (inactive) | 40.1 µM (inactive) | 45.1 µM (inactive) |  | 74.3 µM (inactive) | 64.6 µM (inactive) | 41.2 µM (inactive) | 25.1 µM (inactive) | 43.2 µM (inactive) |
| C=C1CC2C[C@H](OS(=O)(=O)c3ccc(C)cc3)C(C1)N2C (some centres not stated) | > 100 µM (inactive) | > 100 µM (inactive) | > 100 µM (inactive) | > 100 µM (inactive) | > 100 µM (inactive) |  | > 100 µM (inactive) | > 100 µM (inactive) | > 100 µM (inactive) | > 100 µM (inactive) | > 100 µM (inactive) | > 100 µM (inactive) | > 100 µM (inactive) | > 100 µM (inactive) | > 100 µM (inactive) | > 100 µM (inactive) | > 100 µM (inactive) | > 100 µM (inactive) | > 100 µM (inactive) | > 100 µM (inactive) |
| CCC1=NC(N/N=C/c2ccco2)=N/C1=C\c1ccco1 | > 100 µM (inactive) | > 100 µM (inactive) | > 100 µM (inactive) | > 100 µM (inactive) | > 100 µM (inactive) | > 100 µM (inactive) | 52 µM (inactive) | > 100 µM (inactive) | > 100 µM (inactive) | > 100 µM (inactive) | > 100 µM (inactive) | > 100 µM (inactive) | > 100 µM (inactive) | > 100 µM (inactive) | > 100 µM (inactive) | > 100 µM (inactive) | > 100 µM (inactive) | > 100 µM (inactive) | > 100 µM (inactive) |  |
| Cc1c(F)c(N)c2c(=O)cc(-c3ccc(NC(=O)CN(C)C)c(F)c3)oc2c1F | > 100 µM (inactive) |  | > 100 µM (inactive) | > 100 µM (inactive) | 82.8 µM (inactive) | 57 µM (inactive) | 24.2 µM (inactive) | > 100 µM (inactive) | 33 µM (inactive) | 28.4 µM (inactive) |  | 36.6 µM (inactive) | 86.1 µM (inactive) | > 100 µM (inactive) | > 100 µM (inactive) | 18.3 µM (inactive) | 21.5 µM (inactive) | 2.45 µM (inactive) | 18.4 µM (inactive) | > 100 µM (inactive) |

Reference: ChEMBL document CHEMBL1201862, “PubChem BioAssay data set” (2004)
